Reference: patent US7812162B2, “Enantiomers of 2′-fluoralkyl-6-nitroquipazine as serotonin transporter positron emission tomography imaging agents and antidepressant therapeutics” (The University of Montana, priority 2006, dated 2010)
Where two headings read alike, the source gives them in different places.

Columns and labels:
[1] = target: T1, rat frontal cortical SERT, rSERT (Rattus norvegicus, UniProt P31652); experiment: Competition binding assay, rat frontal cortical SERT, [3H]Paroxetine; conditions: Competitive binding, rat brain cortex homogenate, 20° C., n = 3, mean±s.e.m.
T1 construct: rat frontal cortical SERT, rSERT; from tissue; host or cells: rat frontal cortex
Description: The compounds of the invention are potent (sub-nanomolar concentration) pharmacological inhibitor binding ligands of the serotonin transporter. Examples of the in vitro inhibition competitive pharmacological binding SERT potencies are shown in Table 3, where the binding constant Ki values are reported as mean±s.e.m., n=3 or greater. The binding constants were determined using an established competition assay (rat frontal cortical SERT, rSERT; [^3H]Paroxetine, 3 h incubation time at 20° C., nonspecific binding determined as the difference in the absence and presence of saturating levels of non-radioactive 6-nitroquipazine) [Gerdes 2000] which is a modified method of Habert [Habert 1985]. […] The ligands of the invention are considered to have antidepressant qualities since they effectively compete with the radiolabelled form of the known antidepressant Paroxetine ([^3H]Paroxetine) at the serotonin transporter [Tatsumi 1997, Hyttel 1994].

[2] = target: T2, human serotonin transporter (hSERT) (Homo sapiens, UniProt P31645); experiment: Inhibition of [3H]5-HT uptake into HEK-293 cells transfected with hSERT; assay type: cell-based; conditions: hSERT HEK-293 cells, 20° C.
T2 construct: expressed in transfected cells; host or cells: HEK-293

SERT [3] = target: T3, SERT (Rattus norvegicus, UniProt P31652); conditions: Rat brain, [3H]paroxetine; SERT competitive binding; cited from earlier work
SERT [4] = target: T3, SERT; conditions: Rat brain, [3H]citalopram; SERT competitive binding; cited from earlier work

T2 sequence (P31645 whole entry): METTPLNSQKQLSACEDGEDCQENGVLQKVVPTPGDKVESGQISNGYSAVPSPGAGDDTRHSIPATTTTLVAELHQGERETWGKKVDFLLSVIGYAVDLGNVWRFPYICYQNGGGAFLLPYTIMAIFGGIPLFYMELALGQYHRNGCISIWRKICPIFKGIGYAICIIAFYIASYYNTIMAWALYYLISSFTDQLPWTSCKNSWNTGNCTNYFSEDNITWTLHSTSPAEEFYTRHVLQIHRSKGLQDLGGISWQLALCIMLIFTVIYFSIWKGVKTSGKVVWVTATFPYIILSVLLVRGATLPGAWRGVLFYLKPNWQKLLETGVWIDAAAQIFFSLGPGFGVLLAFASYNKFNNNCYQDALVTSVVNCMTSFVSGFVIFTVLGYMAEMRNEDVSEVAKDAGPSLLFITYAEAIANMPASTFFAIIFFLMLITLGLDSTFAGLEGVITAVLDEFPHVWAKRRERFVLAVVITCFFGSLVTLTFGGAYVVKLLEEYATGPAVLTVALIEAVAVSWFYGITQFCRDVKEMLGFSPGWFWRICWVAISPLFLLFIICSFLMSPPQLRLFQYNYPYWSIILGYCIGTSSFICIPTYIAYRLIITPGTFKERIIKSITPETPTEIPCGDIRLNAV
T3 sequence (P31652 whole entry): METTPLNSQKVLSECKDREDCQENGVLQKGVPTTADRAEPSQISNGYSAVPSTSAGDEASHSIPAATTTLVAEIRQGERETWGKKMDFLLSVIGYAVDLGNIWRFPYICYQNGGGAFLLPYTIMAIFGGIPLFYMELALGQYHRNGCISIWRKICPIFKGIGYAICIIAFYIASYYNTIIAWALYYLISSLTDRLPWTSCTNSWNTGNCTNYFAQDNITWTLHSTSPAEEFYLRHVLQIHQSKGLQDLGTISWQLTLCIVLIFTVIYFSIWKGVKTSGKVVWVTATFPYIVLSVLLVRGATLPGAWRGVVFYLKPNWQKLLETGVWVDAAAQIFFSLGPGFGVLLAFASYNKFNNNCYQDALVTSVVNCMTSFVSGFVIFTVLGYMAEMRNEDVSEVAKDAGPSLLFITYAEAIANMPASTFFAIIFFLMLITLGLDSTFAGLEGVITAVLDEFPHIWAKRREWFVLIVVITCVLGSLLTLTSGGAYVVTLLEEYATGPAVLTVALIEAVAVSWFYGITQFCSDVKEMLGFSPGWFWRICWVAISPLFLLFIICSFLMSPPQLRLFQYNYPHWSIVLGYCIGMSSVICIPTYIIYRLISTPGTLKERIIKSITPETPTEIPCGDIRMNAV
T1 sequence (P31652 whole entry): as above

Compound	Ki [1]	Ki (SERT [3])	further results
O=[N+]([O-])c1ccc2nc(N3CCNCC3COCCCF)ccc2c1 (racemic) [Cpd 2, 2-[2-((3-Fluoropropoxy)methyl)piperazine-1-yl]-6-nitroquinoline]	0.28 ± 0.09 nM		
COCC1CNCCN1c1ccc2cc([N+](=O)[O-])ccc2n1 (racemic) [Cpd 13]	0.42 ± 0.01 nM		Ki [2]: 0.47 nM
O=[N+]([O-])c1ccc2nc(N3CCNCC3CO)ccc2c1 (racemic) [Cpd 14]	0.68 ± 0.04 nM		
O=[N+]([O-])c1ccc2nc(N3CCNCC3)ccc2c1 [Cpd 5]		0.16 nM	
O=[N+]([O-])c1ccc2nc(N3CCNCC3)ccc2c1I [Cpd 6]		0.17 nM	
O=[N+]([O-])c1ccc2nc(N3CCNCC3)ccc2c1F [Cpd 8]		0.25 nM	
O=[N+]([O-])c1ccc2nc(N3CCNCC3)c(CCCF)cc2c1 [Cpd 10]			Ki (SERT [4]): 0.31 nM
CC1CNCCN1c1ccc2cc([N+](=O)[O-])ccc2n1 (stereo not drawn) [Cpd 12]		0.08 nM	

More lines, main results first:

Ki [1]	Compound	Ki (SERT [3])	further results
0.25 ± 0.08 nM	O=[N+]([O-])c1ccc2nc(N3CCNC[C@@H]3COCCCF)ccc2c1 [Cpd 2R]		
1.56 ± 0.88 nM	O=[N+]([O-])c1ccc2nc(N3CCNC[C@H]3COCCCF)ccc2c1 [Cpd 2S]		
0.25 ± 0.03 nM	COC[C@H]1CNCCN1c1ccc2cc([N+](=O)[O-])ccc2n1 [Cpd 13R]		Ki [2]: 0.15 nM
1.52 ± 0.1 nM	COC[C@@H]1CNCCN1c1ccc2cc([N+](=O)[O-])ccc2n1 [Cpd 13S, (S)-(−)-2-[2-(Methoxymethyl)piperazin-1-yl]-6-nitroquinolin]		Ki [2]: 1.66 nM
